ChEMBL document CHEMBL1158172, “Preparation and antibacterial activity of cyclic 2',3'-carbamate derivatives of azithromycin” (Eur J Med Chem, 2008)
Active and inactive are the calls of the source. The rule behind the calls is not given here.

How the values were obtained:
[1] = system: Staphylococcus aureus; assay: Antibacterial activity against Staphylococcus aureus ATCC 25923; format: functional, organism-based
[2] = system: Escherichia coli; assay: Antibacterial activity against Escherichia coli ATCC 25922; format: functional, organism-based

CC[C@H]1OC(=O)[C@H](C)[C@@H](O[C@H]2C[C@@](C)(OC)[C@@H](O)[C@H](C)O2)[C@H](C)[C@@H](O[C@@H]2O[C@H](C)C[C@H]3[C@H]2OC(=O)N3C)[C@](C)(O)C[C@@H](C)CN[C@H](C)[C@@H]2OC(=O)O[C@]12C
Activity [1]: inactive
Activity [2]: inactive

CC[C@H]1OC(=O)[C@H](C)[C@@H](O[C@H]2C[C@@](C)(OC)[C@@H](O)[C@H](C)O2)[C@H](C)[C@@H](O[C@@H]2O[C@H](C)C[C@H]3[C@H]2OC(=O)N3C)[C@](C)(O)C[C@@H](C)CN(C)[C@H](C)[C@@H]2OC(=O)O[C@]12C
Activity [1]: inactive
Activity [2]: inactive
